Data on 16 molecules can be found in patent US20090286806A1, “ISOXAZOLE DERIVATIVES AS CALCIUM CHANNEL BLOCKERS” (priority 2006, published 2009).

The target in experiment [1] is T1, rat brain N-type calcium channel subunits (α1B+α2δ+β1b cDNA subunits) (Rattus norvegicus, UniProt Q02294).
T1 construct: expressed in transfected cells; host or cells: HEK 293
Briefly: N-type calcium channel block, whole cell patch clamp in transfected HEK 293 cells. Format: cell-based. The settings on record: holding potential −80 mV to +10 mV. Here is the method: N-type calcium channel blocking activity was assayed in human embryonic kidney cells, HEK 293, stably transfected with the rat brain N-type calcium channel subunits (α1B+α2δ+β1b cDNA subunits). Alternatively, N-type calcium channels (α1B+α2δ+β1b cDNA subunits), L-type channels (α1C+α2δ+β1b cDNA subunits) and P/Q-type channels (α1A+α2δ+β1b cDNA subunits) were transiently expressed in HEK 293 cells. Briefly, cells were cultured in Dulbecco's modified eagle medium (DMEM) supplemented with 10% fetal bovine serum, 200 U/ml penicillin and 0.2 mg/ml streptomycin at 37° C. with 5% CO2. At 85% confluency cells were split with 0.25% trypsin/1 mM EDTA and plated at 10% confluency on glass coverslips. At 12 hours the medium was replaced and the cells transiently transfected using a standard calcium phosphate protocol and the appropriate calcium channel cDNA's. Fresh DMEM was supplied and the cells transferred to 28° C./5% CO2. Cells were incubated for 1 to 2 days prior to whole cell recording.
Whole cell patch clamp experiments were performed using an Axopatch 200B amplifier (Axon Instruments, Burlingame, Calif.) linked to a personal computer equipped with pCLAMP software. The external and internal recording solutions contained, respectively, 5 mM BaCl2, 10 mM MgCl2, 10 mM HEPES, 40 mM TEACl, 10 mM glucose, 87.5 mM CsCl (pH 7.2) and 108 mM CsMS, 4 mM MgCl2, 9 mM EGTA, 9 mM HEPES (pH 7.2). Currents were typically elicited from a holding potential of −80 mV to +10 mV using Clampex software (Axon Instruments). Typically, currents were first elicited with low frequency stimulation (0.067 Hz) and allowed to stabilize prior to application of the compounds. The compounds were then applied during the low frequency pulse trains for two to three minutes to assess tonic block, and subsequently the pulse frequency was increased to 0.2 Hz to assess frequency dependent block. Data were analyzed using Clampfit (Axon Instruments) and SigmaPlot 4.0 (Jandel Scientific).
On the technique in general: The patch-clamp technique gives a direct electrical read-out from membranes.

The target in experiment [2] is T2, human α1G T-type channels (Homo sapiens, UniProt O43497).
T2 construct: expressed in transfected cells; host or cells: HEK cell lines
Description: T-type calcium channel block, whole-cell patch clamp in HEK cell lines. In kind it is cell-based. As to conditions: HEK cells. Here is the method: Standard patch-clamp techniques were employed to identify blockers of T-type currents. Briefly, previously described HEK cell lines stably expressing human α1G T-type channels were used for all the recordings (passage #: 4-20, 37° C., 5% CO2). To obtain T-type currents, plastic dishes containing semi-confluent cells were positioned on the stage of a ZEISS AXIOVERT S100 microscope after replacing the culture medium with external solution (see below). Whole-cell patches were obtained using pipettes (borosilicate glass with filament, O.D.: 1.5 mm, I.D.: 0.86 mm, 10 cm length), fabricated on a SUTTER P-97 puller with resistance values of ˜5 M• (see below for internal solution).
In the non-inactivating protocol, the holding potential is set at −110 mV and with a pre-pulse at −100 mV for 1 second prior to the test pulse at −40 mV for 50 ms. […]
Test compounds were dissolved in external solution, 0.1-0.01% DMSO. After ˜10 min rest, they were applied by gravity close to the cell using a WPI microfil tubing. The “non-inactivated” pre-pulse was used to examine the resting block of a compound. The “inactivated” protocol was employed to study voltage-dependent block. However, the initial data shown below were mainly obtained using the non-inactivated protocol only. IC50 values are shown for various compounds of the invention in Table 5.

For experiment [3], the system named is T-type over L-type channels. The settings on record: literature statement (Heady et al. 2001); cited from earlier work.
Where [4] appears, read: low frequency stimulation 0.067 Hz (tonic block), read-out: IC50 @ 0.067 Hz.
Setting [5] is: pulse frequency 0.2 Hz (frequency dependent block), read-out: IC50 @ 0.2 Hz.
Where [6] appears, read: inactivation protocol (voltage-dependent block), read-out: IC50 @ −80 mV.
The mark [7] stands for this setting: non-inactivating protocol, pre-pulse −100 mV (resting block), read-out: IC50 @ −100 mV.

For orientation: IC50 means the point on the concentration scale where inhibition reaches its midpoint.

Like-named read-outs stand apart in the source and are kept apart here. A value given as a limit tells only on which side of the number the result lay.

T2 sequence (O43497 whole entry): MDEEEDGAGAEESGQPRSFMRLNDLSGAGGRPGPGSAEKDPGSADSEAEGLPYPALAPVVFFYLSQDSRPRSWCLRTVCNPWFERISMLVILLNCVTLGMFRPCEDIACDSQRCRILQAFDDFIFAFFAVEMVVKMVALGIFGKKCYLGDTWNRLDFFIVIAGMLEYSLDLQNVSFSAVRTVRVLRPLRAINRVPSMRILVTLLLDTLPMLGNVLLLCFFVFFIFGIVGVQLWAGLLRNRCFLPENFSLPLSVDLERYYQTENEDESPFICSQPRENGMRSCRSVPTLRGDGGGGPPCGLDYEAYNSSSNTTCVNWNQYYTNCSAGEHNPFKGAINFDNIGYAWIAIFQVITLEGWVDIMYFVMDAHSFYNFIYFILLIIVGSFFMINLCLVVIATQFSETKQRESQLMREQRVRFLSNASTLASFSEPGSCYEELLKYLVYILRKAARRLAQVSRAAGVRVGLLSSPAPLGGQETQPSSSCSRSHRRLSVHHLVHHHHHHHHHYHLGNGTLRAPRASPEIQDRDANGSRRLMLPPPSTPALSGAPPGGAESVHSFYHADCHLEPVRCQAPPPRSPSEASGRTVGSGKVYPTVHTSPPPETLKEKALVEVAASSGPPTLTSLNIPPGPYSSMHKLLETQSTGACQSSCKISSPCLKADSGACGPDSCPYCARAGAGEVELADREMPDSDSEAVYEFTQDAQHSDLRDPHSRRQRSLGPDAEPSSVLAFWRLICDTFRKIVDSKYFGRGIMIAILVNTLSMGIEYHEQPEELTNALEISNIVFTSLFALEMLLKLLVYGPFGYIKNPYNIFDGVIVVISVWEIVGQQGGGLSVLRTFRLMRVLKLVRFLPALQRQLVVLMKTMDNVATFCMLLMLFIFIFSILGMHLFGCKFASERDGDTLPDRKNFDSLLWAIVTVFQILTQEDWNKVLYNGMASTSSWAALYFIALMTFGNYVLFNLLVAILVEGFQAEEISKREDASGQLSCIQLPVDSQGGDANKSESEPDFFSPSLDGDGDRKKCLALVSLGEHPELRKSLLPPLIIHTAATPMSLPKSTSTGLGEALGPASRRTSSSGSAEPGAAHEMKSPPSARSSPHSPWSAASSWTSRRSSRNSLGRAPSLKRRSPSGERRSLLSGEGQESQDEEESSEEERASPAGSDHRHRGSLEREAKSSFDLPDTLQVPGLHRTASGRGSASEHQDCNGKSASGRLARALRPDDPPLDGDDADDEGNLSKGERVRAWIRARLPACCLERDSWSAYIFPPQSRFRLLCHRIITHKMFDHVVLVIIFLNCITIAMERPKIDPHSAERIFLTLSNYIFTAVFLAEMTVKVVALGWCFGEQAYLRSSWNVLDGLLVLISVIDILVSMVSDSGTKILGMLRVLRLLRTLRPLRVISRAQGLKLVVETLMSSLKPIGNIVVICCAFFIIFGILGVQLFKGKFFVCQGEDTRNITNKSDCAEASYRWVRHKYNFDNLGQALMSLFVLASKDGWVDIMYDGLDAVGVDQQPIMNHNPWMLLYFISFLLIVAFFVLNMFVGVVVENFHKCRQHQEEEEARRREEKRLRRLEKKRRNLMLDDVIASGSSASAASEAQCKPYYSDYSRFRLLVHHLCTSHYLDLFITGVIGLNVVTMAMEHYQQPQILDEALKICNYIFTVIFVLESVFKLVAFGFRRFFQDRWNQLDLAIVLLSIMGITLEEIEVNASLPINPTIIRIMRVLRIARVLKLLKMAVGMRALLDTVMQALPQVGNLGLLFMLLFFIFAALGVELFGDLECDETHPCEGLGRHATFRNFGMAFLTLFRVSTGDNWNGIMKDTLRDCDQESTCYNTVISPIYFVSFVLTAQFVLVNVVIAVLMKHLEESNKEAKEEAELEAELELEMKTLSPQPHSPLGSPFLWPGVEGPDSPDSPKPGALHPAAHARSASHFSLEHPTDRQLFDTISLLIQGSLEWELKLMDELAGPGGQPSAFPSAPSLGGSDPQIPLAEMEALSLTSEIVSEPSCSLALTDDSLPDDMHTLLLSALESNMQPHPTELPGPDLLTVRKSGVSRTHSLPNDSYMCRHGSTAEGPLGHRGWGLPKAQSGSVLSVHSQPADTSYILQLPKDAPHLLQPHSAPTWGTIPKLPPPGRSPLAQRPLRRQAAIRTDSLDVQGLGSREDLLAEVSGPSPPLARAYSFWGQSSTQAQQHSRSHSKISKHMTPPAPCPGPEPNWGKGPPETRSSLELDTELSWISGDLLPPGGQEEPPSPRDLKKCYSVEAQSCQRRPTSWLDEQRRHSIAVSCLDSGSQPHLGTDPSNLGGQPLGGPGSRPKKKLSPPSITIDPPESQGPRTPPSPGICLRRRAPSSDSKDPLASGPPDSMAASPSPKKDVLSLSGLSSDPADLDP
T1 sequence (Q02294 whole entry): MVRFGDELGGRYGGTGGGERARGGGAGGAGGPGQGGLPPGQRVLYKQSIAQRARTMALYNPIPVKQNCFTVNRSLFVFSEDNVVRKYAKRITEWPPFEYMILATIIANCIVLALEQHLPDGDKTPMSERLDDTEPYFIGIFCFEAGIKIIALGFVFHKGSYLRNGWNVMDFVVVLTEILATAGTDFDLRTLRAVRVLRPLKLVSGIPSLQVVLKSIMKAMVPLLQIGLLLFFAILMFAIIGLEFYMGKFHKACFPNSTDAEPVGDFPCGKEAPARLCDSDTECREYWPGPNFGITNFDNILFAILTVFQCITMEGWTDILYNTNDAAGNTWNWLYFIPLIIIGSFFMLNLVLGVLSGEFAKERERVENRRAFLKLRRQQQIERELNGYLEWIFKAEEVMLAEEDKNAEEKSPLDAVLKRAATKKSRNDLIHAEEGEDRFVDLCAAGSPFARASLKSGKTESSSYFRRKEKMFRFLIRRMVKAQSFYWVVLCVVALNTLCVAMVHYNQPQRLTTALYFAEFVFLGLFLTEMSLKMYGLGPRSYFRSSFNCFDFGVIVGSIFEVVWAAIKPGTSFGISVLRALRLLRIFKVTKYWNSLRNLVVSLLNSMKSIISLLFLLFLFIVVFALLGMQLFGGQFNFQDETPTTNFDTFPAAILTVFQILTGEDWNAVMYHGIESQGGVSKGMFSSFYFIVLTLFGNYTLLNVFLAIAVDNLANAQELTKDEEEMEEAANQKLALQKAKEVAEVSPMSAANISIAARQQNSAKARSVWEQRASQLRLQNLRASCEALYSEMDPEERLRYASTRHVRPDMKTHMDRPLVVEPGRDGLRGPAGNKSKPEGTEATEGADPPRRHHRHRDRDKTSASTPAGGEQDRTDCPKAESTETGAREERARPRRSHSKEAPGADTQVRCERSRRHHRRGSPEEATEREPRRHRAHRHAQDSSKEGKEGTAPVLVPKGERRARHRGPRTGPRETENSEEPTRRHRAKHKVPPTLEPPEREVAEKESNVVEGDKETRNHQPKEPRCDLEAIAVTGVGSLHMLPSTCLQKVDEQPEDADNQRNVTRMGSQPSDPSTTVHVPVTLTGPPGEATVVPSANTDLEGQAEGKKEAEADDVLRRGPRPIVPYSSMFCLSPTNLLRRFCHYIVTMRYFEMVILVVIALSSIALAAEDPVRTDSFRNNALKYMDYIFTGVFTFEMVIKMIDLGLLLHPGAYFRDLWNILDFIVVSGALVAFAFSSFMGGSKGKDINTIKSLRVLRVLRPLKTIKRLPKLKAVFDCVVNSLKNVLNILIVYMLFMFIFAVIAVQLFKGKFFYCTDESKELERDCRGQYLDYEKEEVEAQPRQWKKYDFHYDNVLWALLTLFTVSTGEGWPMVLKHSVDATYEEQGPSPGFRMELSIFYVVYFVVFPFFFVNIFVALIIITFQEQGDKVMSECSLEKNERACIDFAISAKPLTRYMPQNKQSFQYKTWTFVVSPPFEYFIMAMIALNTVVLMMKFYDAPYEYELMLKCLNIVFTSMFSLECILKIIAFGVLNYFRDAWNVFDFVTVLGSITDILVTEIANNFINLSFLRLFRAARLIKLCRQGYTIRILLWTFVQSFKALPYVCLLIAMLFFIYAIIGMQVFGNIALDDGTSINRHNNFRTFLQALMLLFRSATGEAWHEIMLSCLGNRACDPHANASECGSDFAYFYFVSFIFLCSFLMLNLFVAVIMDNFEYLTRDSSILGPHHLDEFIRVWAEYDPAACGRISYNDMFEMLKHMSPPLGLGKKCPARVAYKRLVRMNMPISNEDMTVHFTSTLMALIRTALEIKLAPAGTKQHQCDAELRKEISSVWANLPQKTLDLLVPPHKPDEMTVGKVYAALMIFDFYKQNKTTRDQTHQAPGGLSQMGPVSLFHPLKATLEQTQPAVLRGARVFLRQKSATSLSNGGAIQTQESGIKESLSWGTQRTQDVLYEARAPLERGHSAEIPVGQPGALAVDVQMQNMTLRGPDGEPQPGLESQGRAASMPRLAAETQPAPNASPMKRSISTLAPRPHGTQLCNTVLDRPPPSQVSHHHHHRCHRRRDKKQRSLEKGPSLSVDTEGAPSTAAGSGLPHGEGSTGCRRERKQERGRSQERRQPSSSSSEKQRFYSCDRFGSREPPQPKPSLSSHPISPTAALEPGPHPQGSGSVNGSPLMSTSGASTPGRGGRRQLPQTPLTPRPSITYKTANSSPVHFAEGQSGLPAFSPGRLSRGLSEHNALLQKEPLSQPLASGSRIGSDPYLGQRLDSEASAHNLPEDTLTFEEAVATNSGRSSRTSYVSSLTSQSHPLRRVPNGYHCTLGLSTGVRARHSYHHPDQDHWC

For the molecule `O=C(CC(c1ccccc1)c1ccccc1)N1CCN(Cc2cc(-c3ccccc3)no2)CC1` [Compound 9, 3,3-diphenyl-1-(4-((3-phenylisoxazol-5-yl)methyl)piperazin-1-yl)propan-1-one], the IC50 in experiment [1] (setting [4]) was 2.8 µM; in experiment [1] (setting [5]), 1.2 µM; in experiment [2] (setting [6]), 1.7 µM; in experiment [2] (setting [7]) it was more than 10 µM.
In the case of `Cc1ccc(C(c2ccccc2)N2CCN(C(=O)c3cc(-c4ccccc4F)no3)CC2)c(C)c1` (stereo not drawn) [Compound 11, (4-((2,4-dimethylphenyl)(phenyl)methyl)piperazin-1-yl)(3-(2-fluorophenyl)isoxazol-5-yl)methanone], the IC50 came out at 2.18 µM in experiment [1] (setting [4]), 1.13 µM in experiment [1] (setting [5]), 2.77 µM in experiment [2] (setting [6]) and 14.8 µM in experiment [2] (setting [7]).
Regarding `O=C(c1cc(-c2ccccc2F)no1)N1CCN(C(c2ccccc2)c2ccccc2)CC1` [Compound 3, (4-benzhydrylpiperazin-1-yl)(3-(2-fluorophenyl)isoxazol-5-yl)methanone], the IC50 was 0.8 µM in experiment [1] (setting [4]) and 0.37 µM in experiment [1] (setting [5]).
As for `Fc1ccccc1-c1cc(CN2CCN(C(c3ccccc3)c3ccc(Cl)cc3Cl)CC2)on1` (stereo not drawn) [Compound 16, 5-((4-((2,4-dichlorophenyl)(phenyl)methyl)piperazin-1-yl)methyl)-3-(2-fluorophenyl) isoxazole], the IC50 stood at 3.15 µM in experiment [1] (setting [4]) and 1.96 µM in experiment [1] (setting [5]).
Regarding `Clc1ccc(C(c2ccccc2)N2CCN(Cc3cc(-c4ccccc4)no3)CC2)c(Cl)c1` (stereo not drawn) [Compound 14, 5-((4-((2,4-dichlorophenyl)(phenyl)methyl)piperazin-1-yl)methyl)-3-phenylisoxazole], the IC50 is 22.2 µM in experiment [1] (setting [4]), 2.24 µM in experiment [1] (setting [5]), 5.53 µM in experiment [2] (setting [6]) and more than 16.5 µM in experiment [2] (setting [7]).
For `Cc1ccc(C(c2ccccc2)N2CCN(Cc3cc(-c4ccccc4F)no3)CC2)c(C)c1` (stereo not drawn) [Compound 12, 5-((4-((2,4-dimethylphenyl)(phenyl)methyl)piperazin-1-yl)methyl)-3-(2-fluorophenyl)isoxazole], in that order: 0.95 µM, 0.57 µM, 0.83 µM and 3.69 µM.
With `COc1ccccc1-c1cc(C(=O)N2CCN(C(c3ccccc3)c3ccccc3)CC2)on1` [Compound 4, (4-benzhydrylpiperazin-1-yl)(3-(2-methoxyphenyl)isoxazol-5-yl)methanone], the IC50 in experiment [1] (setting [4]) is 2.99 µM; in experiment [1] (setting [5]) it was 1.49 µM.
`Cc1ccc(C(c2ccccc2)N2CCN(Cc3cc(-c4ccccc4)no3)CC2)c(C)c1` (stereo not drawn) [Compound 10, 5-((4-((2,4-dimethylphenyl)(phenyl)methyl)piperazin-1-yl)methyl)-3-phenylisoxazole]: the IC50 came out at 1.07 µM in experiment [1] (setting [4]), 0.4 µM in experiment [1] (setting [5]), 2.18 µM in experiment [2] (setting [6]) and 9.21 µM in experiment [2] (setting [7]).
Regarding `O=C(c1cc(-c2ccccc2F)no1)N1CCN(C(c2ccccc2)c2ccc(Cl)cc2Cl)CC1` (stereo not drawn) [Compound 15, (4-((2,4-dichlorophenyl)(phenyl)methyl)piperazin-1-yl)(3-(2-fluorophenyl)isoxazol-5-yl)methanone], the results for the IC50 in experiment [1] (setting [4]) and in experiment [1] (setting [5]) were 6.47 µM and 3.38 µM, respectively.
On to `c1ccc(-c2cc(CN3CCN(C(c4ccccc4)c4ccccc4)CC3)on2)cc1` [Compound 2, 5-((4-benzhydrylpiperazin-1-yl)methyl)-3-phenylisoxazole], for which the IC50 in experiment [1] (setting [4]) was determined as 1.7 µM; in experiment [1] (setting [5]), 0.67 µM; in experiment [2] (setting [6]) it was 0.35 µM; in experiment [2] (setting [7]) it was 1.6 µM.
`COCC(=O)O[C@]1(CCN(C)CCCc2nc3ccccc3[nH]2)CCc2cc(F)ccc2[C@@H]1C(C)C` [Mibefradil]: the “selective for T-type over L-type channels” value in experiment [3] is recorded as 10-30 fold.
With `O=C(CC(c1ccccc1)c1ccccc1)N1CCN(Cc2cc(-c3ccccc3F)no2)CC1` [Compound 7, 1-(4-((3-(2-fluorophenyl)isoxazol-5-yl)methyl)piperazin-1-yl)-3,3-diphenylpropan-1-one], the IC50 in experiment [1] (setting [4]) was determined as 0.52 µM; in experiment [1] (setting [5]), 0.33 µM.
For `COc1ccccc1-c1cc(CN2CCN(C(=O)CC(c3ccccc3)c3ccccc3)CC2)on1` [Compound 8, 1-(4-((3-(2-methoxyphenyl)isoxazol-5-yl)methyl)piperazin-1-yl)-3,3-diphenylpropan-1-one] the same measures were 0.6 µM and 0.29 µM.
For `COc1ccccc1-c1cc(CN2CCN(C(c3ccccc3)c3ccccc3)CC2)on1` [Compound 5, 5-((4-benzhydry1piperazin-1-yl)methyl)-3-(2-methoxyphenyl)isoxazole] the same measures were 0.68 µM and 0.34 µM.
For `Fc1ccccc1-c1cc(CN2CCN(C(c3ccccc3)c3ccccc3)CC2)on1` [Compound 6, 5-((4-benzhydry1piperazin-1-yl)methyl)-3-(2-fluorophenyl)isoxazole] the same measures were 3.4 µM and 1.1 µM.
As for `O=C(c1cc(-c2ccccc2)no1)N1CCN(C(c2ccccc2)c2ccccc2)CC1` [Compound 1, (4-benzhydrylpiperazin-1-yl)(3-phenylisoxazol-5-yl)methanone], the IC50 was 0.65 µM in experiment [1] (setting [4]), 0.29 µM in experiment [1] (setting [5]), 1.9 µM in experiment [2] (setting [6]) and more than 10 µM in experiment [2] (setting [7]).
